Read-outs that look alike come from different tables or passages of the source.
How the values were obtained:
human α1A‐adrenoceptor [1] = target: T1, human α1A‐adrenoceptor (Homo sapiens, UniProt P35348); assay: ^3H‐cAMP accumulation in the presence of 10 μM forskolin, CHO‐α1A cells; format: cell-based
T1 construct: expressed in transfected cells; host or cells: CHO-K1
T1 sequence (P35348 1-466): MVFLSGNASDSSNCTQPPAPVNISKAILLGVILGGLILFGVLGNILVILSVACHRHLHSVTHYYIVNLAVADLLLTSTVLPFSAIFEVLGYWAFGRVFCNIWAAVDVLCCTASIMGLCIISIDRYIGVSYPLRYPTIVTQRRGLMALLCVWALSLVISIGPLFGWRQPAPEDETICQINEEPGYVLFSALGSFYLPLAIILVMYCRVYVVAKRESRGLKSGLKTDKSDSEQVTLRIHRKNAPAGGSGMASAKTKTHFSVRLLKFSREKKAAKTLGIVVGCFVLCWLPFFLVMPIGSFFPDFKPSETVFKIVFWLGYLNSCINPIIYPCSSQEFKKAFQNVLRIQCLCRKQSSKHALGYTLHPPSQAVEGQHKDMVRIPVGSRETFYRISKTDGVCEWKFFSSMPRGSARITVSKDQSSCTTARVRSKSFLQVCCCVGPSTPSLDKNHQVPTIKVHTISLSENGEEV

human α1A‐adrenoceptor [2] = target: T1, human α1A‐adrenoceptor; assay: ^3H‐prazosin whole‐cell radioligand binding, CHO‐α1A cells
[3] = test system: parental CHO cell line without any transfected receptors; assay: Forskolin‐stimulated cAMP accumulation, parent CHO cells without transfected receptors; format: cell-based, Chinese hamster
human α1B‐adrenoceptor [4] = target: T2, human α1B‐adrenoceptor (Homo sapiens, UniProt P35368); assay: Intracellular free calcium mobilization, CHO‐α1B cells; format: cell-based
T2 construct: expressed in transfected cells; host or cells: CHO-K1
T2 sequence (P35368 1-520): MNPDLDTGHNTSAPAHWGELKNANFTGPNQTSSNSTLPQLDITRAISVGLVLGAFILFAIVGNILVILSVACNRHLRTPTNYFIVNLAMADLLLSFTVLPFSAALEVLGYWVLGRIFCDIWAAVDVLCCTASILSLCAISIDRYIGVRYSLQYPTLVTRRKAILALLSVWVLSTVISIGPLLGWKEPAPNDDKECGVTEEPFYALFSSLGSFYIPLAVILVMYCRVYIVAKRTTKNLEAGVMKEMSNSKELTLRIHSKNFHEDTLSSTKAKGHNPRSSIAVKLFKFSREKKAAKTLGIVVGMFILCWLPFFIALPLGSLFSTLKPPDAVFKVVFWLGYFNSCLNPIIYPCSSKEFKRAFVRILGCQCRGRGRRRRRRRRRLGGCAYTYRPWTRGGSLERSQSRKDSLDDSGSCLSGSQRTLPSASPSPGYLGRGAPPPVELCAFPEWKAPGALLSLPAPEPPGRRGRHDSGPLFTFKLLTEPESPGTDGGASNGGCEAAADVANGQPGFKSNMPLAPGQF

human α1B‐adrenoceptor [5] = target: T2, human α1B‐adrenoceptor; assay: ^3H‐prazosin whole‐cell radioligand binding, CHO‐α1B cells
[6] = target: T3, human α1D‐adrenoceptor (full length) (Homo sapiens, UniProt P25100); assay: ^3H‐prazosin whole‐cell radioligand binding, CHO‐α1D cells
T3 construct: human α1D‐adrenoceptor (full length) were used; expressed in transfected cells; host or cells: CHO-K1
T3 sequence (P25100 1-572): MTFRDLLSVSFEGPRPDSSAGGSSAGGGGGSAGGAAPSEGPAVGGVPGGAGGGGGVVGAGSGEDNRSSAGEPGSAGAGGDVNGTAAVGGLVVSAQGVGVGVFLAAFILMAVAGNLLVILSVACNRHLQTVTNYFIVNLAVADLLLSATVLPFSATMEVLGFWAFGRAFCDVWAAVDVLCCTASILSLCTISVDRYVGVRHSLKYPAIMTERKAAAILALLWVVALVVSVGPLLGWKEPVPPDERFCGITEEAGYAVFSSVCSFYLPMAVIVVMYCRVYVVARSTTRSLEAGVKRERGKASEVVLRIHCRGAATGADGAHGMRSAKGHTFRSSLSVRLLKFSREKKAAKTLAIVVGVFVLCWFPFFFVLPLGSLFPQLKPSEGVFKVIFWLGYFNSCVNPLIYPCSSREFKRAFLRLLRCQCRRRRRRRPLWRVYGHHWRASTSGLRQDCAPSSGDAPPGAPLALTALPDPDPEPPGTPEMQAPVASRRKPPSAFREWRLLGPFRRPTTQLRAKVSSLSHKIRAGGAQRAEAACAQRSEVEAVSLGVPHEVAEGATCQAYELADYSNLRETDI

[7] = test system: parental CHO cell line without any transfected receptors; assay: ^3H‐cAMP accumulation, parent CHO cells without transfected receptors; format: cell-based, Chinese hamster
human α1B‐adrenoceptor [8] = target: T2, human α1B‐adrenoceptor; assay: ^3H‐cAMP accumulation in the presence of 10 μM forskolin, CHO‐α1B cells; format: cell-based
human α1A‐adrenoceptor [9] = target: T1, human α1A‐adrenoceptor; assay: ^3H‐cAMP accumulation, CHO‐α1A cells; format: cell-based; details: for cAMP accumulation % forskolin: CHO‐α1A cells, % of 10 µM forskolin response
[10] = target: T3, human α1D‐adrenoceptor (full length); assay: ^3H‐cAMP accumulation, CHO‐α1D cells; format: cell-based; details: cAMP accumulation without forskolin
[11] = test system: parental CHO cell line without any transfected receptors; assay: Intracellular calcium mobilization, parent CHO cells without transfected receptors; format: cell-based, Chinese hamster; details: Cricetulus griseus, read-out: Intracellular calcium release % ionomycin
[12] = target: T3, human α1D‐adrenoceptor (full length); assay: ^3H‐cAMP accumulation in the presence of 10 μM forskolin, CHO‐α1D cells; format: cell-based; details: CHO‐α1D cells
human α1B‐adrenoceptor [13] = target: T2, human α1B‐adrenoceptor; assay: ^3H‐cAMP accumulation, CHO‐α1B cells; format: cell-based
human α1A‐adrenoceptor [14] = target: T1, human α1A‐adrenoceptor; assay: Intracellular free calcium mobilization, CHO‐α1A cells; format: cell-based
human α1A‐adrenoceptor [15] = target: T1, human α1A‐adrenoceptor; assay: ERK1/2‐phosphorylation (Surefire Alphascreen), CHO‐α1A cells; format: cell-based
[16] = target: T3, human α1D‐adrenoceptor (full length); assay: ERK1/2‐phosphorylation (Surefire Alphascreen), CHO‐α1D cells; format: cell-based
[17] = target: T3, human α1D‐adrenoceptor (full length); assay: Intracellular free calcium mobilization, CHO‐α1D cells; format: cell-based
[18] = test system: parental CHO cell line without any transfected receptors; assay: ERK1/2‐phosphorylation, parent CHO cells without transfected receptors; format: cell-based, Chinese hamster
human α1B‐adrenoceptor [19] = target: T2, human α1B‐adrenoceptor; assay: ERK1/2‐phosphorylation (Surefire Alphascreen), CHO‐α1B cells; format: cell-based
[20] = target: T3, human α1D‐adrenoceptor (full length); details: CHO‐α1D cells; ligands marked ^a; ref Proudman et al., 2020; cited from earlier work
human α1B‐adrenoceptor [21] = target: T2, human α1B‐adrenoceptor; details: CHO‐α1B cells; printed as IC50> log value; ligand marked ^a; ref Proudman et al., 2020; cited from earlier work
[22] = CHO‐α1A cells, maximal response as % of 10 µM ionomycin
[23] = CHO‐α1A cells, % of 10 µM PDBu, ^a bi‐phasic: initial stimulatory part
[24] = CHO‐α1D cells, response at 100 µM ligand (no EC50 given)
[25] = CHO‐α1B cells, maximal response as % PDBu response, for bi‐phasic responses the initial stimulatory part

In the case of `C=CCc1ccccc1OC(C)C1=NCCN1` (stereo not shown) [Allyphenyline], the EC50 (human α1A‐adrenoceptor [1]) is reported as 0.00794 µM, the “cAMP accumulation (in presence of forskolin) Fold increase” value (human α1A‐adrenoceptor [1]; CHO‐α1A cells, fold increase of the forskolin response) is reported as 2.38 ± 0.08 fold and the “Affinity selectivity ratio α1A vs α1B” value (human α1A‐adrenoceptor [2]) is reported as 47.9 fold. The “Affinity selectivity ratio α1A vs α1D” value (human α1A‐adrenoceptor [2]) was 8.7 fold, the Kd (human α1A‐adrenoceptor [2]) was 0.162 µM and the “cAMP accumulation (in presence of forskolin) % forskolin-stim cAMP” value [3] was “No response”. The “cAMP accumulation (in presence of forskolin) Log EC50” value [3] was “No response”, the EC50 (human α1B‐adrenoceptor [4]) was 0.0794 µM and the “Intracellular calcium release % ionomycin” value (human α1B‐adrenoceptor [4]) was 39.9 ± 1.9%. For the same compound, the “Log efficacy ratio KD /EC50” value (human α1B‐adrenoceptor [4]) was 1.99, the Kd (human α1B‐adrenoceptor [5]) was 7.76 µM and the “Affinity selectivity ratio α1B vs α1D” value [6] was 5.5 fold. For the same compound, the Kd [6] was 1.41 µM, the “cAMP accumulation % forskolin” value [7] was “No response” and the EC50 (human α1B‐adrenoceptor [8]) was 0.0513 µM. The “cAMP accumulation (in presence of forskolin) Fold increase” value (human α1B‐adrenoceptor [8]; CHO‐α1B cells, fold increase of the forskolin response) was 1.87 ± 0.07 fold, the EC50 (human α1A‐adrenoceptor [9]) was 0.0891 µM and the “cAMP accumulation % forskolin” value (human α1A‐adrenoceptor [9]) was 82.4 ± 5.5%. For the same compound, the “cAMP Log EC50” value [10] was “No response”, the Emax ([11]; CHO) was 5.9 ± 1% and the “cAMP (in presence of forskolin) Fold increase” value ([12]; fold increase of the forskolin response) was “No response”. For the same compound, the “cAMP (in presence of forskolin) Log EC50” value ([12]; in presence of forskolin, log values given negative) was “No response”, the EC50 (human α1B‐adrenoceptor [13]) was 0.174 µM and the “cAMP accumulation % forskolin” value (human α1B‐adrenoceptor [13]; CHO‐α1B cells, % forskolin maximum response) was 5.5 ± 0.9%. The EC50 (human α1A‐adrenoceptor [14]) was 0.00295 µM, the “Intracellular calcium release % ionomycin” value (human α1A‐adrenoceptor [14]) was 58.6 ± 3.0% and the “Log efficacy ratio KD /EC50” value (human α1A‐adrenoceptor [14]) was 1.74. For the same compound, the EC50 (human α1A‐adrenoceptor [15]) was 0.00158 µM, the “ERK1/2‐phosphorylation % PDBu” value (human α1A‐adrenoceptor [15]) was 79.3 ± 3.5% and the EC50 [16] was 6.92 µM. The “ERK1/2‐phosphorylation % PDBu” value [16] was 29.1 ± 4.7%, the EC50 [17] was 0.316 µM and the “Intracellular calcium release % ionomycin” value [17] was 12.3 ± 1.4%. The “Log efficacy ratio KD /EC50” value [17] was 0.65, the Emax at 100 µM ([18]; Cricetulus griseus, CHO, read-out: ERK1/2-phosphorylation % PDBu at 100μM) was 12.7 ± 3.1% and the EC50 (human α1B‐adrenoceptor [19]) was 0.282 µM. For the same compound, the “ERK1/2‐phosphorylation % PDBu” value (human α1B‐adrenoceptor [19]) was 65.3 ± 3.0%.
For `COc1ccccc1N1CCN(CCN2C(=O)CC3(CCCC3)CC2=O)CC1` [BMY7378], the “cAMP accumulation (in presence of forskolin) Log EC50” value ([3]; CHO cells without transfected receptors, in presence of forskolin) is given as “No response”, the “% site 1 (% of the response at the first component), α1D two‐component binding curve” value [20] is given as 57.7 ± 2.6% and the “Intracellular calcium release % Ionomycin at 100 µM” value (human α1B‐adrenoceptor [4]; CHO‐α1B cells, response at 100 µM ligand (no EC50 given), % of ionomycin response) is given as 8.0 ± 2.1%. The “cAMP accumulation % forskolin” value (human α1A‐adrenoceptor [9]) was “No response”, the Emax ([11]; CHO cells without transfected receptors, response at maximum concentration used (c2), as % of ionomycin (10μM) response, mean ± s.e.m.) was 7.8 ± 2.2% and the “Intracellular calcium release % ionomycin” value (human α1A‐adrenoceptor [14]; [22]) was 25.0 ± 3.4%. The “ERK1/2‐phosphorylation % PDBu” value (human α1A‐adrenoceptor [15]; [23]) was 29.0 ± 4.7%, the “ERK1/2‐phosphorylation % PDBu at 100 µM” value [16, 24] was 3.0 ± 1.5% and the “Intracellular calcium release % Ionomycin at 100 µM” value [17, 24] was 4.2 ± 1.0%. The “ERK1/2-phosphorylation % PDBu” value ([18]; CHO cells without transfected receptors, maximal response as % of PDBu (10μM) response, mean ± s.e.m.) was “No response” and the “ERK1/2‐phosphorylation % PDBu” value (human α1B‐adrenoceptor [19]; [25]) was “No response”.
With `CC(C)(C)NCC(O)COc1cccc2[nH]c(=O)[nH]c12` (stereo not shown) [CGP 12177] the “Affinity selectivity ratio α1A vs α1B” value (human α1A‐adrenoceptor [2]) was greater than 13.8 fold, the “Intracellular calcium release Log EC50” value (human α1B‐adrenoceptor [4]; CHO‐α1B cells, given as log EC50 (negative numbers)) was “No response” and the “Intracellular calcium release % ionomycin” value (human α1B‐adrenoceptor [4]; CHO‐α1B cells, maximal response as % of 10 µM ionomycin response) was “No response”. For the same compound, the “Affinity selectivity ratio α1B vs α1D” value [6] was greater than 1.6 fold, the “Log IC50 α1B, ^3H‐prazosin whole cell binding” value (human α1B‐adrenoceptor [21]) was “IC50>−4” and the “Log efficacy ratio KD /EC50” value (human α1A‐adrenoceptor [14]) was 1.04. The EC50 (human α1A‐adrenoceptor [14]; CHO‐α1A cells, given as log EC50 (negative), read-out: Intracellular calcium release Log EC50 (converted)) was 0.661 µM, the “Intracellular calcium release % ionomycin” value (human α1A‐adrenoceptor [14]; [22]) was 37.0 ± 2.8% and the “ERK1/2‐phosphorylation % PDBu” value (human α1A‐adrenoceptor [15]; [23]) was 86.8 ± 2.6%. For the same compound, the “ERK1/2‐phosphorylation % PDBu” value ([16]; CHO‐α1D cells, maximal response as % of PDBu) was 25.8 ± 3.2%, the “Intracellular calcium release Log EC50” value ([17]; CHO‐α1D cells, log values given negative) was “No response” and the “Intracellular calcium release % ionomycin” value ([17]; CHO‐α1D cells, maximal response as % of 10 µM ionomycin) was “No response”. For the same compound, the Emax ([18]; Cricetulus griseus, CHO cells without transfected receptors, maximal response as % of PDBu (10μM) response, mean ± s.e.m., read-out: ERK1/2-phosphorylation % PDBu) was 22.8 ± 4.3%, the EC50 ([18]; Cricetulus griseus, CHO cells without transfected receptors, mean ± s.e.m., read-out: ERK1/2-phosphorylation Log EC50 (converted)) was 0.977 µM and the “ERK1/2‐phosphorylation response in parent CHO cells” value ([18]; untransfected cells) was “stimulated ERK1/2‐phosphorylation responses”. The “ERK1/2‐phosphorylation % PDBu” value (human α1B‐adrenoceptor [19]; [25]) was 38.1 ± 3.8%.

From PMC8343220, “The selectivity of α‐adrenoceptor agonists for the human α1A, α1B, and α1D‐adrenoceptors” (Pharmacology Research & Perspectives, 2021)
